Data from article PMC6151383 (Molecules : A Journal of Synthetic Chemistry and Natural …, 2017).
≈ marks a conversion by molar mass, not a printed value. Read-outs that look alike come from different tables or passages of the source.

Tests used:
[1] = test system: Staphylococcus aureus CCM 4516/08; test: Antibacterial microdilution broth MIC, S. aureus; assay type: cell-based; details: Staphylococcus aureus, CCM4516; 48 h incubation; read-out: MIC SA 48 h
[2] = test system: Staphylococcus epidermidis H 6966/08; test: Antibacterial microdilution broth MIC, S. epidermidis; assay type: cell-based; details: Staphylococcus epidermidis
[3] = test system: Enterococcus faecalis J 14365/08; test: Antibacterial microdilution broth MIC, E. faecalis; assay type: cell-based; details: Enterococcus faecalis, J14365/08; 48 h incubation; read-out: MIC EF 48 h
[4] = test system: Escherichia coli CCM 4517; test: Antibacterial microdilution broth MIC, E. coli; assay type: cell-based; details: Escherichia coli, CCM4517; 48 h incubation; read-out: MIC EC 48 h
[5] = test system: Pseudomonas aeruginosa CCM 1961; test: Antibacterial microdilution broth MIC, P. aeruginosa; assay type: cell-based; details: Pseudomonas aeruginosa, CCM1961; 48 h incubation; read-out: MIC PA 48 h
[6] = test system: Mycobacterium tuberculosis 331/88 (H37Rv); test: In vitro antimycobacterial MIC, M. tuberculosis; assay type: cell-based
[7] = test system: Mycobacterium avium 330/88; test: In vitro antimycobacterial MIC, M. avium; assay type: cell-based
[8] = test system: Mycobacterium kansasii 235/80; test: In vitro antimycobacterial MIC, M. kansasii 235/80; assay type: cell-based
[9] = test system: M. kansasii 6509/96; test: In vitro antimycobacterial MIC, M. kansasii clinical isolate; assay type: cell-based; details: Mycobacterium kansasii
[10] = test system: Candida albicans ATCC 44859; test: Antifungal microdilution broth MIC, C. albicans; assay type: cell-based; details: ATCC44859, 48 h incubation, read-out: MIC CA 48 h
[11] = test system: Candida tropicalis 156; test: Antifungal microdilution broth MIC, C. tropicalis; assay type: cell-based; details: Candida tropicalis, 156; 48 h incubation; read-out: MIC CT 48 h
[12] = test system: Candida krusei E28; test: Antifungal microdilution broth MIC, C. krusei; assay type: cell-based; details: Pichia kudriavzevii, E28; 48 h incubation; read-out: MIC CK 48 h
[13] = test system: Candida glabrata 20/I; test: Antifungal microdilution broth MIC, C. glabrata; assay type: cell-based; details: Nakaseomyces glabratus, 48 h incubation, read-out: MIC CG 48 h
[14] = test system: Trichosporon asahii 1188; test: Antifungal microdilution broth MIC, T. asahii; assay type: cell-based; details: Trichosporon asahii, 1188; 48 h incubation; read-out: MIC TA 48 h
[15] = test system: Aspergillus fumigatus 231; test: Antifungal microdilution broth MIC, A. fumigatus; assay type: cell-based; details: Aspergillus fumigatus, 231; 48 h incubation; read-out: MIC AF 48 h
[16] = test system: Lichtheimia corymbifera 272; test: Antifungal microdilution broth MIC, L. corymbifera; assay type: cell-based; details: Lichtheimia corymbifera, 272; 48 h incubation; read-out: MIC LC 48 h
[17] = test system: Trichophyton interdigitale 445; test: Antifungal microdilution broth MIC, T. interdigitale; assay type: cell-based; details: for SI for TI: SI = IC50 (HepG2)/MIC
[18] = test system: Candida sp.; test: Selectivity index for Candida sp. (IC50 HepG2/MIC); assay type: cell-based; details: all Candida species
[19] = test system: Klebsiella pneumoniae D 11750/08
[20] = test system: ESBL-positive Klebsiella pneumoniae J 14368/08
[21] = H6966/08, 48 h incubation, read-out: MIC SE 48 h
[22] = 336 h, 14 d incubation, read-out: MIC Mtb. 331/88 14 d
[23] = 504 h, 21 d incubation, read-out: MIC Mtb. 331/88 21 d
[24] = 330/88, 336 h, 14 d incubation, read-out: MIC M. avium 330/88 14 d
[25] = 330/88, 504 h, 21 d incubation, read-out: MIC M. avium 330/88 21 d
[26] = 235/80, 168 h, 7 d incubation, read-out: MIC M. kansasii 235/80 7 d
[27] = 235/80, 336 h, 14 d incubation, read-out: MIC M. kansasii 235/80 14 d
[28] = 235/80, 504 h, 21 d incubation, read-out: MIC M. kansasii 235/80 21 d
[29] = 6509/96, 168 h, 7 d incubation, read-out: MIC M. kansasii 6509/96 7 d
[30] = 6509/96, 336 h, 14 d incubation, read-out: MIC M. kansasii 6509/96 14 d
[31] = 6509/96, 504 h, 21 d incubation, read-out: MIC M. kansasii 6509/96 21 d
[32] = Trichophyton interdigitale, 445, 72 h incubation, read-out: MIC TI 72 h
[33] = Trichophyton interdigitale, 445, 120 h incubation, read-out: MIC TI 120 h

Compound | MIC [1] [µM] | MIC [2, 21] [µM] | MIC [3] [µM] | MIC [4] [µM] | MIC [5] [µM] | MIC [6, 22] [µM] | MIC [6, 23] [µM] | MIC [7, 24] [µM] | MIC [7, 25] [µM] | MIC [8, 26] [µM] | MIC [8, 27] [µM] | MIC [8, 28] [µM] | MIC [9, 29] [µM] | MIC [9, 30] [µM] | MIC [9, 31] [µM] | MIC [10] [µM] | MIC KP 24 h [19] [µM] | MIC KP 48 h [19] [µM] | MIC KP-E 24 h [20] [µM] | MIC KP-E 48 h [20] [µM] | also measured
O=S(=O)(Nc1ncccn1)c1ccc(N=Cc2cc(F)ccc2O)cc1 [Compound 2b, 4-[(5-Fluoro-2-hydroxybenzylidene)amino]-N-(pyrimidin-2-yl)benzenesulfonamide] | > 250 | > 250 | > 250 | > 250 | > 250 | 125 (≈ 46.5 µg/mL) | 125 (≈ 46.5 µg/mL) | 500 (≈ 186 µg/mL) | 1000 (≈ 372 µg/mL) | 62.5 (≈ 23.3 µg/mL) | 125 (≈ 46.5 µg/mL) | 250 (≈ 93.1 µg/mL) | 125 (≈ 46.5 µg/mL) | 250 (≈ 93.1 µg/mL) | 250 (≈ 93.1 µg/mL) | > 250 | >250 | >250 | >250 | >250 | MIC [11]: > 250 µM; MIC [12]: > 250 µM; MIC [13]: > 250 µM; MIC [14]: > 250 µM; MIC [15]: > 250 µM; MIC [16]: > 250 µM; SI for TI ([17]; Trichophyton interdigitale): inactive; MIC [17, 32]: > 250 µM; MIC [17, 33]: > 250 µM; SI for Candida sp. [18]: inactive
O=S(=O)(Nc1ncccn1)c1ccc(N=Cc2c(O)cccc2Cl)cc1 [Compound 2k, 4-[(2-Chloro-6-hydroxybenzylidene)amino]-N-(pyrimidin-2-yl)benzenesulfonamide] | > 250 | > 250 | > 250 | > 250 | > 250 | 125 (≈ 48.6 µg/mL) | 125 (≈ 48.6 µg/mL) | 250 (≈ 97.2 µg/mL) | 250 (≈ 97.2 µg/mL) | 62.5 (≈ 24.3 µg/mL) | 125 (≈ 48.6 µg/mL) | 250 (≈ 97.2 µg/mL) | 62.5 (≈ 24.3 µg/mL) | 125 (≈ 48.6 µg/mL) | 125 (≈ 48.6 µg/mL) | > 250 | >250 | >250 | >250 | >250 | MIC [11]: > 250 µM; MIC [12]: > 250 µM; MIC [13]: > 250 µM; MIC [14]: > 250 µM; MIC [15]: > 250 µM; MIC [16]: > 250 µM; SI for TI ([17]; Trichophyton interdigitale): inactive; MIC [17, 32]: > 250 µM; MIC [17, 33]: > 250 µM; SI for Candida sp. [18]: inactive
O=[N+]([O-])c1ccc(O)c(C=Nc2ccc(S(=O)(=O)Nc3ncccn3)cc2)c1 [Compound 2f, 4-[(2-Hydroxy-5-nitrobenzylidene)amino]-N-(pyrimidin-2-yl)benzenesulfonamide] | 250 (≈ 99.8 µg/mL) | 500 (≈ 200 µg/mL) | 500 (≈ 200 µg/mL) | 250 (≈ 99.8 µg/mL) | 500 (≈ 200 µg/mL) | 250 (≈ 99.8 µg/mL) | 250 (≈ 99.8 µg/mL) | 500 (≈ 200 µg/mL) | 1000 (≈ 399 µg/mL) | 125 (≈ 49.9 µg/mL) | 250 (≈ 99.8 µg/mL) | 500 (≈ 200 µg/mL) | 125 (≈ 49.9 µg/mL) | 250 (≈ 99.8 µg/mL) | 250 (≈ 99.8 µg/mL) | 500 (≈ 200 µg/mL) | >500 | >500 | 500 (≈ 200 µg/mL) | 500 (≈ 200 µg/mL) | MIC [11]: > 500 µM; MIC [12]: > 500 µM; MIC [13]: 250 µM (≈ 99.8 µg/mL); MIC [14]: > 500 µM; MIC [15]: > 500 µM; MIC [16]: 500 µM (≈ 200 µg/mL); MIC [17, 32]: 62.5 µM (≈ 25 µg/mL); MIC [17, 33]: 62.5 µM (≈ 25 µg/mL); MIC ([17]; Trichophyton interdigitale, 445, incubation time not given, read-out: MIC for T. interdigitale): 62.5 µM (≈ 25 µg/mL)
Nc1ccc(S(=O)(=O)Nc2ncccn2)cc1 [SDZ 1, sulfadiazine, reference compound] | > 500 | > 500 | > 500 | > 500 | > 500 | 32 (≈ 8.01 µg/mL) | 62.5 (≈ 15.6 µg/mL) | 62.5 (≈ 15.6 µg/mL) | 62.5 (≈ 15.6 µg/mL) | 16 (≈ 4 µg/mL) | 16 (≈ 4 µg/mL) | 32 (≈ 8.01 µg/mL) | 8 (≈ 2 µg/mL) | 8 (≈ 2 µg/mL) | 8 (≈ 2 µg/mL) |  | >500 | >500 | >500 | >500 | SI for TI ([17]; Trichophyton interdigitale): inactive; SI for Candida sp. [18]: inactive
COc1ccc(O)c(C=Nc2ccc(S(=O)(=O)Nc3ncccn3)cc2)c1 [Compound 2h, 4-[(2-Hydroxy-5-methoxybenzylidene)amino]-N-(pyrimidin-2-yl)benzenesulfonamide] | 500 (≈ 192 µg/mL) |  | > 500 | > 500 | 500 (≈ 192 µg/mL) | 32 (≈ 12.3 µg/mL) | 62.5 (≈ 24 µg/mL) | 125 (≈ 48.1 µg/mL) | 125 (≈ 48.1 µg/mL) | 16 (≈ 6.15 µg/mL) | 32 (≈ 12.3 µg/mL) | 62.5 (≈ 24 µg/mL) | 16 (≈ 6.15 µg/mL) | 16 (≈ 6.15 µg/mL) | 32 (≈ 12.3 µg/mL) | 500 (≈ 192 µg/mL) | >500 | >500 | >500 | >500 | MIC ([2]; H6966/08, 24 h, read-out: MIC SE 24 h): 62.5 µM (≈ 24 µg/mL); MIC ([2]; H6966/08, 48 h, read-out: MIC SE 48 h): 62.5 µM (≈ 24 µg/mL); MIC [11]: 500 µM (≈ 192 µg/mL); MIC [12]: > 500 µM; MIC [13]: 500 µM (≈ 192 µg/mL); MIC [14]: 500 µM (≈ 192 µg/mL); MIC [15]: > 500 µM; MIC [16]: > 500 µM; MIC ([17]; Trichophyton interdigitale, 445, 72 h, read-out: MIC TI 72 h): 62.5 µM (≈ 24 µg/mL); MIC ([17]; Trichophyton interdigitale, 445, 120 h, read-out: MIC TI 120 h): 62.5 µM (≈ 24 µg/mL); MIC ([17]; Trichophyton interdigitale, 445, read-out: MIC for T. interdigitale): 62.5 µM (≈ 24 µg/mL)
